“And” between values parts separate entries of the source, which are not always exact repeats. Equal entries are not always repeated. ± gives the expanded uncertainty stated by the source.
Columns and labels:
[1] = activity coefficient (dimensionless); of the first substance listed, at infinite dilution; xn = mol fraction of the nth substance listed; details: Liquid, Chromatography, x1 = 0
[2] = 298.15 K; 101.33 kPa; Liquid; Vibrating tube method

For C#CCCC [1-pentyne] + CCCCCCCC[n+]1ccn(C)c1.F[P-](F)(F)(F)(F)F, the activity coefficient ([1]; 313.15 K) was 1.7 and 1.72, the activity coefficient ([1]; 323.15 K) was 1.79 and 1.75 and the activity coefficient ([1]; 333.15 K) was 1.78 and 1.84.
With C=CCCCCCC [oct-1-ene] + CCCCCCCC[n+]1ccn(C)c1.F[P-](F)(F)(F)(F)F the activity coefficient ([1]; 313.15 K) was 10.8 and 10.3, the activity coefficient ([1]; 323.15 K) was 10.2 and 10.7 and the activity coefficient ([1]; 333.15 K) was 10.4 and 10.3.
With C=CCCCCC [1-heptene] + CCCCCCCC[n+]1ccn(C)c1.F[P-](F)(F)(F)(F)F the activity coefficient ([1]; 313.15 K) was 8.2 ± 0.7, the activity coefficient ([1]; 323.15 K) was 8.1 and 8.2 and the activity coefficient ([1]; 333.15 K) was 8 and 8.1.
For CCCCCCC [heptane] + CCCCCCCC[n+]1ccn(C)c1.F[P-](F)(F)(F)(F)F, the activity coefficient ([1]; 313.15 K) was 14.1 and 14.3, the activity coefficient ([1]; 323.15 K) was 13.6 and 13.8 and the activity coefficient ([1]; 333.15 K) was 13.2 ± 1.1.
In the case of CCc1ccccc1 [ethylbenzene] + CCCCCCCC[n+]1ccn(C)c1.F[P-](F)(F)(F)(F)F, the activity coefficient ([1]; 313.15 K) is reported as 1.95 ± 0.17, the activity coefficient ([1]; 323.15 K) is reported as 1.98 ± 0.17 and the activity coefficient ([1]; 333.15 K) is reported as 1.99 and 2.02.
In the case of c1ccccc1 [benzene] + CCCCCCCC[n+]1ccn(C)c1.F[P-](F)(F)(F)(F)F, the activity coefficient ([1]; 313.15 K) is reported as 0.96 and 0.97, the activity coefficient ([1]; 323.15 K) is reported as 0.99 ± 0.08 and the activity coefficient ([1]; 333.15 K) is reported as 1 and 1.03.
In the case of CO [methanol] + CCCCCCCC[n+]1ccn(C)c1.F[P-](F)(F)(F)(F)F, the activity coefficient ([1]; 313.15 K) is reported as 1.77 and 1.85, the activity coefficient ([1]; 323.15 K) is reported as 1.65 and 1.61 and the activity coefficient ([1]; 333.15 K) is reported as 1.46 and 1.5.
For CCO [ethanol] + CCCCCCCC[n+]1ccn(C)c1.F[P-](F)(F)(F)(F)F, the activity coefficient ([1]; 313.15 K) was 2.22 and 2.32, the activity coefficient ([1]; 323.15 K) was 2.05 and 2 and the activity coefficient ([1]; 333.15 K) was 1.79 and 1.82.
With C=CCCCC [hex-1-ene] + CCCCCCCC[n+]1ccn(C)c1.F[P-](F)(F)(F)(F)F the activity coefficient ([1]; 313.15 K) was 6.2 and 6.5, the activity coefficient ([1]; 323.15 K) was 6.29 and 6.15 and the activity coefficient ([1]; 333.15 K) was 6.1 and 6.15.
For C#CCCCCCC [1-octyne] + CCCCCCCC[n+]1ccn(C)c1.F[P-](F)(F)(F)(F)F, the activity coefficient ([1]; 313.15 K) was 3.77 and 3.9, the activity coefficient ([1]; 323.15 K) was 3.94 and 3.87 and the activity coefficient ([1]; 333.15 K) was 3.94 and 4.03.
In the case of CCCCCCCCCC [decane] + CCCCCCCC[n+]1ccn(C)c1.F[P-](F)(F)(F)(F)F, the activity coefficient ([1]; 313.15 K) is reported as 31.8 and 31.7, the activity coefficient ([1]; 323.15 K) is reported as 30.8 and 30.3 and the activity coefficient ([1]; 333.15 K) is reported as 28.2 and 29.
With C#CCCCCC [1-heptyne] + CCCCCCCC[n+]1ccn(C)c1.F[P-](F)(F)(F)(F)F the activity coefficient ([1]; 313.15 K) was 2.81 and 2.93, the activity coefficient ([1]; 323.15 K) was 2.98 and 2.87 and the activity coefficient ([1]; 333.15 K) was 2.93 and 3.04.
In the case of Cc1ccccc1 [toluene] + CCCCCCCC[n+]1ccn(C)c1.F[P-](F)(F)(F)(F)F, the activity coefficient ([1]; 313.15 K) is reported as 1.31 and 1.36, the activity coefficient ([1]; 323.15 K) is reported as 1.37 and 1.35 and the activity coefficient ([1]; 333.15 K) is reported as 1.37 and 1.41.
In the case of CCCCC [pentane] + CCCCCCCC[n+]1ccn(C)c1.F[P-](F)(F)(F)(F)F, the activity coefficient ([1]; 313.15 K) is reported as 8.2 and 8.3, the activity coefficient ([1]; 323.15 K) is reported as 8.1 ± 0.7 and the activity coefficient ([1]; 333.15 K) is reported as 7.8 and 8.
With C=CCCCCCCCC [1-decene] + CCCCCCCC[n+]1ccn(C)c1.F[P-](F)(F)(F)(F)F the activity coefficient ([1]; 313.15 K) was 16.3 and 16.7, the activity coefficient ([1]; 323.15 K) was 16.3 and 16.5 and the activity coefficient ([1]; 333.15 K) was 16.3 and 16.4.
In the case of C#CCCCC [1-hexyne] + CCCCCCCC[n+]1ccn(C)c1.F[P-](F)(F)(F)(F)F, the activity coefficient ([1]; 313.15 K) is reported as 2.24 and 2.33, the activity coefficient ([1]; 323.15 K) is reported as 2.38 and 2.3 and the activity coefficient ([1]; 333.15 K) is reported as 2.34 and 2.43.
For CCCCCCCCCCC [undecane] + CCCCCCCC[n+]1ccn(C)c1.F[P-](F)(F)(F)(F)F, the activity coefficient ([1]; 313.15 K) was 42.1 and 41.3, the activity coefficient ([1]; 323.15 K) was 40.1 and 39.6 and the activity coefficient ([1]; 333.15 K) was 36.5 and 37.
With C1CCCCCC1 [cycloheptane] + CCCCCCCC[n+]1ccn(C)c1.F[P-](F)(F)(F)(F)F the activity coefficient ([1]; 313.15 K) was 8.2 and 8, the activity coefficient ([1]; 323.15 K) was 7.74 and 7.97 and the activity coefficient ([1]; 333.15 K) was 7.63 and 7.75.
In the case of CCCCCCCC [octane] + CCCCCCCC[n+]1ccn(C)c1.F[P-](F)(F)(F)(F)F, the activity coefficient ([1]; 313.15 K) is reported as 18.3 and 17.6, the activity coefficient ([1]; 323.15 K) is reported as 17.1 and 17.9 and the activity coefficient ([1]; 333.15 K) is reported as 17 and 16.9.
In the case of C1CCCC1 [cyclopentane] + CCCCCCCC[n+]1ccn(C)c1.F[P-](F)(F)(F)(F)F, the activity coefficient ([1]; 313.15 K) is reported as 5.02 and 5.06, the activity coefficient ([1]; 323.15 K) is reported as 4.95 and 4.92 and the activity coefficient ([1]; 333.15 K) is reported as 4.77 and 4.79.
With CCCCCC [hexane] + CCCCCCCC[n+]1ccn(C)c1.F[P-](F)(F)(F)(F)F the activity coefficient ([1]; 313.15 K) was 10.8 and 11, the activity coefficient ([1]; 323.15 K) was 10.7 and 10.6 and the activity coefficient ([1]; 333.15 K) was 10.2 and 10.4.
With C1CCCCCCC1 [cyclooctane] + CCCCCCCC[n+]1ccn(C)c1.F[P-](F)(F)(F)(F)F the activity coefficient ([1]; 313.15 K) was 10.2 and 9.9, the activity coefficient ([1]; 323.15 K) was 9.5 and 9.9 and the activity coefficient ([1]; 333.15 K) was 9.4 ± 0.8.
For C1CCCCC1 [cyclohexane] + CCCCCCCC[n+]1ccn(C)c1.F[P-](F)(F)(F)(F)F, the activity coefficient ([1]; 313.15 K) was 6.7 and 6.82, the activity coefficient ([1]; 323.15 K) was 6.61 and 6.56 and the activity coefficient ([1]; 333.15 K) was 6.29 and 6.3.
CCCCCCCC[n+]1ccn(C)c1.F[P-](F)(F)(F)(F)F [1-octyl-3-methylimidazolium hexafluorophosphate] showed a mass density [2] of 1238.51 ± 10 kg/m3.
In the case of C=CCCCCCCC [1-nonene] + CCCCCCCC[n+]1ccn(C)c1.F[P-](F)(F)(F)(F)F, the activity coefficient ([1]; 313.15 K) is reported as 14.2 and 13.5, the activity coefficient ([1]; 323.15 K) is reported as 13.3 and 13.9 and the activity coefficient ([1]; 333.15 K) is reported as 13.5 and 13.3.

— the NIST ThermoML archive (doi:10.1016/j.jct.2009.12.004)
